The source of these data is patent US20260283977A1, “ADIPOCYTE GROWTH INHIBITOR” (WATANABE OYSTER LABORATORY CO., LTD., priority 2023, published 2026).

One experiment relates to 3T3-L1 preadipocytes. The experiment in a line: Cell proliferation of 3T3-L1 preadipocytes (living cell count). It is filed as cell-based, mouse. As for the experimental part:
[…] Furthermore, in an experiment to measure cell proliferation, 3T3-L1 preadipocytes (1×10^5/ml per well of a 24-well plate) were cultured for three days in a culture fluid containing a vehicle (1% ethanol as the final concentration) or DHMBA (0.1, 1, 10, 100, or 1000 μM).
After the culture, adhering cells were separated from each well by adding an aseptic solution containing 0.05% trypsin and EDTA (0.1 ml per well) in PBS (Thermo Fisher Scientific, Waltham, MA, USA) not containing Ca^2+/Mg^2+ and incubating the cells for two minutes. Afterward, 0.9 ml of DMEM containing 10% FBS was added to each well to prepare cell suspensions. In order to measure the number of living cells, a medium (0.1 ml) containing suspension cells was mixed with 0.1 ml of 0.5% trypan blue staining solution. The living cells were counted under a microscope (Olympus MTV-3) using a cell counter (Line Seiki H-102P, Tokyo, Japan) and a hemocytometer (Sigma-Aldrich, St. Louis, Missouri). Two counts were averaged in each measurement. The number of cells was shown as the number per well of a culture plate.

The next experiment relates to 3T3-L1 adipocytes. The experiment in a line: Adipogenesis in 3T3-L1 adipocytes cultured with inhibitors of intracellular signaling pathways (AdipoRed). It is filed as cell-based, mouse. As for the experimental part: In yet another experiment, to search for the involvement of intracellular signaling factors, the culture fluid was substituted with a culture fluid containing DMEM, which contained 10% FBS and insulin (10 μg/ml), and a vehicle (1% ethanol) or DHMBA (1 or 10 μM) two days after the differentiation culture. The cells were cultured for another two days in a culture fluid containing signaling inhibitory factors, such as genistein (1 or 10 μM), Wortmannin (10 or 100 nM), PD98059 (1 or 10 μM), or Bay 11-7082 (1 or 10 nM). After the cell culture, the amount of intracellular lipid (triglyceride) formation was quantified using AdipoRed Assay Reagent (Lonza, Walkersville, MD, USA) [19 to 21]. Fluorescence was measured at an excitation of 485 nm and an emission of 570 nm using a 96-well plate reader (μQuant, Bio-Tek Instruments).

The next experiment concerns PPARγ. Briefly: Western blotting, PPARγ level in 3T3-L1 adipocytes. It is filed as cell-based, mouse. To be noted: DHMBA 10 μM, day 2 to 4 of differentiation; FIG. 7. How it is done: 3T3-L1 preadipocytes (1×10^6 cells/100 mm dish used, in 10 ml of culture fluid) were cultured for three days, at which point they reached sub-confluence, in DMEM containing 10% BCS and 1% P/S. Then, the cells were cultured for two days in a DMEM differentiation culture fluid containing 10% FBS, 1% P/S, 0.5 mM IBMX, and 1 μM dexamethasone. […] After the culture, the culture dish was washed three times with cold PBS (10 ml) to eliminate floating cells and dead cells, and adhering cells were scraped using a cell lysis solution containing protease and protein phosphatase inhibitors (Roche Diagnostics, Indianapolis, IN, USA). Next, the cell lysates were centrifuged for 10 minutes at 17,000×g at 4° C. The concentration of proteins in the supernatant was quantified using Bio-Rad Protein Assay Dye (Bio-Rad Laboratories, Inc., Hercules, CA, USA) with bovine serum albumin as a standard. The extracted protein samples were stored at −80° C. until they were used. […]
After the incubation, the PVDF membrane was incubated at room temperature for 60 minutes in a horseradish peroxidase-conjugated secondary antibody (Santa Cruz Biotechnology, Inc., mouse sc-2005 or rabbit sc-2305; 1:1,000 dilution). Protein bands transferred to the PVDF membrane were detected on an X-ray film using a chemiluminescent substrate (catalog No. 34577, Thermo Scientific, Rockford, IL, USA). […]
A general note: A western blot detects proteins with antibodies after separation by electrophoresis.

Experiment [1] deals with metastatic prostate cancer cells. Conditions: earlier report, no details given; cited from earlier work.

Take `COc1c(O)cc(CO)cc1O` [DHMBA, 3,5-dihydroxy-4-methoxybenzyl alcohol]: the “Cell proliferation (number of cells), time course” value in the experiment with 3T3-L1 preadipocytes (DHMBA 10 μM, cultured one to five days, effect at three to five days, FIG. 2A) is “suppressed”. Moreover, the “Cell proliferation (number of cells), concentration dependence” value with 3T3-L1 preadipocytes (cultured three days, DHMBA 0.1, 1, 10, 100 or 1000 μM, FIG. 2B) is given as “suppressed at concentrations ranging from 1 μM to 1000 μM”. Besides, the “Inhibition of adipogenesis in the presence of Bay 11-7082” value in the experiment on 3T3-L1 adipocytes (DHMBA 1 or 10 μM with Bay 11-7082 1 or 10 nM, FIG. 6D) is given as “further enhanced”. The “Inhibition of adipogenesis in the presence of PD98059” value in the experiment on 3T3-L1 adipocytes (DHMBA 1 or 10 μM with PD98059 1 or 10 μM, FIG. 6C) is “further enhanced”. Besides, the “Inhibition of adipogenesis in the presence of Wortmannin” value in the experiment on 3T3-L1 adipocytes (DHMBA 1 or 10 μM with Wortmannin 10 or 100 nM, FIG. 6B) was “further enhanced”. In the experiment on 3T3-L1 adipocytes (DHMBA 1 or 10 μM with genistein 1 or 10 μM, FIG. 6A), the “Adipogenesis in the presence of genistein” value was “inhibited adipogenesis”. Further, the PPARγ protein level entry in the experiment on PPARγ is reported as “reduced”. Moreover, the “Proliferation of metastatic prostate cancer cells” value in experiment [1] is recorded as “suppress the proliferation”.
